Measured values: patent US6331528A, “Method for treatment in gene therapy and use of guanine derivative therefor” (priority 2000, dated 2001)
In brackets after ≈: the same amount, converted by molar mass.

Assays:
RERF-LC-MA/LZRNL cell = experiment: Cellular toxicity in control cell with no insertion of HSV-1 thymidine kinase gene (MTT); type: cell-based; settings: Homo sapiens, 96 h, control RERF-LC-MA/LZRNL cell without HSV-1 thymidine kinase gene, 4 days
Procedure: (§1) The cellular toxicities of the quanine derivative for use in accordance with the invention (the compound in the free form represented by the structural formula 1), ganciclovir and aciclovir (Comparative Example 1 and 1') against HSV-1 thymidine kinase gene-introduced cells were tested.
(§2) Human lung small cell carcinoma-derived RERF-LC-MA cell was infected with a viral vector prepared by inserting the thymidine kinase gene in a vector derived from Molony mouse leukemia virus. The resulting RERF-LC-MA/LTRNL cell was used. Furthermore, RERF-LC-MA/LZRNL cell with no insertion of any HSV-1 thymidine kinase gene was used as a control cell. The method for preparing these cells and the assay of the cellular toxicities were according to the method reported by Hasegawa et al. [see Hasegawa Y. et al., Am. J. Respir. Cell Mol. Biol. 8 (6) (1993) p. 655-661]. Based on the assay method of cellular toxicity, the cellular toxicities were confirmed by a calorimetric assay method using MTT [3-(4,5-dimethylthiazol-2-yl)-2,5-diphenyl-tetrazolium bromide].
(§3) The RERF-LC-MA/LTPNL cell suspension was diluted with a culture medium (E-MEM, 10% FBS) and inoculated at 2×10^3 cells/well in a 96-well plate. Then, the pharmaceutical component (guanine derivative) for use in accordance with the invention, ganciclovir and aciclovir were added at various concentrations to these wells. Subsequently, the cellular toxicities were assayed and confirmed by a calorimetric assay humid atmosphere for 4 days and using MTT on day 4.

[1] = tested on: mouse granulocyte macrophage precursor cell (CFU-GM); experiment: Effect on the inhibition of the growth of mouse granulocyte macrophage precursor cell (CFU-GM); type: cell-based, mouse C57BL/6N Crj; settings: for IC50: CFU-GM, 168 h, mouse femur bone marrow cells, 4×10^4 cells/ml, mouse interleukin-3, 7 days, 37° C., read-out: IC50 (inhibition of CFU-GM colony formation)
Procedure: The effects of the guanine derivative for use in accordance with the invention (the free form of the compound represented by the structural formula 1), ganciclovir and aciclovir (Comparative Examples 2 and 2') on the inhibition of the growth of mouse granulocyte macrophage precursor cell (CFU-GM) were tested. The mouse granulocyte macrophage precursor cell of Okano et al. [see Okano A. et al., Transplantation 48 (1989) p. 495-498]. The effects on the inhibition of the growth of CFU-GM were assayed as follows. From the femur bone marrow of mouse C57BL/6N Crj females of age 10 weeks was prepared bone marrow cell, which was then inoculated at a concentration of 4×10^4 cells/ml in a semi-solid culture medium with addition of various concentrations of the guanine derivative, ganciclovir and aciclovir (Iscove's modified Dulbecco's medium, 0.8% carboxymethyl cellulose, 20% FBS, 200 units/ml mouse interleukin-3). The cell was cultured in 37° C. in 5% CO2 in a wet atmosphere on a 35-mm plate for 7 days. The emerging CFU-GM colonies were counted with a differential microscope.

[2] = background statement; cited from earlier work
RERF-LC-MA/LTRNL cell = experiment: Cellular toxicity in HSV-1 thymidine kinase gene-introduced cell (MTT); type: cell-based, Human; settings: versus ganciclovir and aciclovir
Procedure: as §1, §2
as §3, with “Subsequently, the cellular toxicities were assayed and confirmed by a calorimetric assay humid atmosphere for 4 days and using MTT on day 4.” left out

Row | Compound | IC50 (RERF-LC-MA/LZRNL cell) [mg/L] | IC50 [1] [mg/L] | therapeutic effect [2] | cellular toxicity effect compared with the conventional products (RERF-LC-MA/LTRNL cell) | bone marrow toxicity compared with ganciclovir and aciclovir ([1]; inferred from CFU-GM colony IC50)
1 | Nc1nc2c(ncn2COCCO)c(=O)[nH]1 [aciclovir] | ≥ 250 | 26 (≈ 115 µM) | extremely poor therapeutic effect |  | 
2 | Nc1nc(O)c2ncn(COC(CO)CO)c2n1 [ganciclovir] | ≥ 201 | 18 (≈ 70.5 µM) |  |  | 
3 | Nc1nc2c(ncn2C[C@]2(CO)C[C@H]2CO)c(=O)[nH]1 [guanine derivative, (-)-9-[1'S,2'R-bis(hydroxymethyl)cyclopropan-1'-yl]methylguanine] | ≥ 135 | ≥ 66 |  | more excellent cellular toxicity effect, compared with the conventional products | possibly weaker than those of ganciclovir and aciclovir
